Counter-ions that a name gives are not always drawn.
Tests used:
[1] = test system: complement system; conditions: reported in cited literature; cited from earlier work
[2] = test system: hereditary angioneurotic edema; conditions: The New England Journal of Medicine, 286, 808-812 (1972); cited from earlier work
[3] = test system: shunt pathway activated by cobra venom factor; test: Test, Code 036 (C-Shunt inhibitor), lysis of human erythrocytes in autologous serum; format: cell-based; conditions: in vitro; two-fold serial dilution assay; higher well number indicates higher activity
Text: (§1) An active inhibitor protects C2 from C1 and C4; (ii) Test, Code 035 (C3-C9 inhibitor)--This test determines the ability of the late components of human complement (C3-C9) to lyse EAC 142 in the presence of appropriate dilutions of the test compound. An active inhibitor protects EAC 142 from lysis by human C3-C9; (iii) Test, Code 036 (C-Shunt inhibitor)--In this test human erythrocytes rendered fragile are lysed in autologous serum via the shunt pathway activated by cobra venom factor in the presence of appropriate dilutions of the test compound. Inhibition of the shunt pathway results in failure of lysis; (iv) Forssman Vasculitis Test--Here, the well known complement dependent lesion, Forssman vasculitis, is produced in guinea pigs by intradermal injection of rabbit anti-Forssman antiserum. […]
(§2) With reference to Table I, guinea pigs weighing about 300 g were dosed intravenously (i.v.) or intraperitoneally (i.p.) with 200 mg/kg of the test compound dissolved in saline and adjusted to pH 7-8. […] Percent inhibition was calculated by comparison with simultaneous controls. […]

[4] = test system: whole complement in serum; test: Complement Level Reduction Test in dosed guinea pigs (capillary tube assay); format: in vivo; conditions: guinea pig, intraperitoneal, 200 mg/kg
[5] = test system: late components of human complement (C3-C9); test: Test, Code 035 (C3-C9 inhibitor), lysis of EAC 142; format: cell-based; conditions: in vitro; two-fold serial dilution assay; higher well number indicates higher activity
Text: as §1, §2

[6] = test system: activated human C1; test: Test, Code 026 (C1 inhibitor); format: biochemical; conditions: in vitro; two-fold serial dilution assay; higher well number indicates higher activity
Text: as §1, §2

Compound	anticomplementary effect / inhibition of the complement system [1]	use in treatment of hereditary angioneurotic edema [2]	further results
Nc1ccc2cc(S(=O)(=O)O)cc(O)c2c1N=Nc1ccc(NC(=O)Nc2ccc(N=Nc3c(N)ccc4cc(S(=O)(=O)O)cc(O)c34)c(S(=O)(=O)O)c2)cc1S(=O)(=O)O [chlorazol fast pink, 3,3'-ureylenebis-[6-(2-amino-8-hydroxy-6-sulfo-1-naphthylazo)]benzenesulfonic acid, tetrasodium salt]	anticomplementary effect	–	–
heparin	anticomplementary effect	–	–
NC[C@H]1CC[C@H](C(=O)O)CC1 [tranexamic acid]	–	used with success	–
Cc1ccc(C(=O)Nc2ccc(S(=O)(=O)O)c3cc(S(=O)(=O)O)cc(S(=O)(=O)O)c23)cc1NC(=O)c1cccc(NC(=O)Nc2cccc(C(=O)Nc3cc(C(=O)Nc4ccc(S(=O)(=O)O)c5cc(S(=O)(=O)O)cc(S(=O)(=O)O)c45)ccc3C)c2)c1 [Suramin]	competitive inhibitor of the complement system	used with success	–
NCCCCCC(=O)O [epsilon-aminocaproic acid]	–	used with success	–
Cc1c(NC(=S)Nc2cc(S(=O)(=O)[O-])cc3cc(S(=O)(=O)[O-])cc(S(=O)(=O)[O-])c23)cc(S(=O)(=O)[O-])cc1NC(=S)Nc1cc(S(=O)(=O)[O-])cc2cc(S(=O)(=O)[O-])cc(S(=O)(=O)[O-])c12.[Na+].[Na+].[Na+].[Na+].[Na+].[Na+].[Na+] [8,8'-[(2-methyl-5-sulfo-1,3-phenylene)bis(2-thioureylene)]di-1,3,6-naphthalenetrisulfonic acid heptasodium salt]	–	–	Shunt Inhibition 036* Wells [3]: N; % change in serum complement level ([4]; 30 minutes): -40%; % change in serum complement level ([4]; 60 minutes): -40%; % change in serum complement level ([4]; 120 minutes): -51%; C-Late 035* Wells [5]: N; C1 026* Wells [6]: +7 Wells

Reference: patent publication US4120893A, “Anionic naphthalene thioureido toluenesulfonic acids” (American Cyanamid Company, priority 1977, dated 1978)
